As a reminder, the mortality is the percentage killed. A high value points to fewer survivors. As a reminder, the LC50 is the concentration that kills 50% of the test population.

Data set [1] relates to Arctic grayling. As to the kind of experiment: Exploratory bioassay, Arctic grayling. The format is in vivo, Thymallus arcticus. To be noted: 10 μg/l; 48 h. The procedure: (§1) Cursory bioassays were made with small numbers of other fishes and a crayfish (Pacifasticus klamathensis) to check on the universal selectivity of the toxicants. The fishes included Arctic grayling (Thymallus arcticus), longnose sucker (C. catastomus), largescale sucker, (C. macrocheilus), and spotted sucker (Minytrema melanops).
Three longnose suckers (about 125 mm) and three Arctic grayling (about 125 mm) were exposed to 10 μg/l of 2, 2, 2, 1-tetrachloroethyl diethyl phosphate. The suckers died between 14 and 22 hours at 13 C. The grayling were not affected in 48-hour biassays.

Data set [2] deals with coho salmon. As to the kind of experiment: Static bioassay, lethal concentration to coho salmon. The format is in vivo, Oncorhynchus kisutch. Conditions: 10 C. The procedure:
Bioassays utilized water from an artesian well at Moscow, Idaho and from the headwaters of the Palouse River, also in Idaho. The chemical characteristics of the artesian water were analyzed as follows: Total hardness 67-120 mg/l; total dissolved solids, 160-175 mg/l; and pH 7.1. The chemistry of the Palouse River water was analyzed as follows: total hardness 17 mg/l; methyl orange alkalinity 26 mg/l; total dissolved solids, 32 mg/l and pH, 7.0.
Fish were acclimated to test temperatures, usually at 5, 7.5, 10, 15 and 20 degrees Celsius (C), at least 60 hours before exposure to toxicants. For fish and crayfish four water baths regulated the temperature of assay aquaria. Each water bath contained a battery of 20 identical 19-liter clear glass containers or 11.4-liter plastic aquaria lined with disposable polyethylene bags and covered with Plexiglass lids to reduce evaporation. For larger fish and large numbers of fish the bioassays were made in two temperature controlled rooms that contained a series of 700-liter circular fiberglass vats and a series of 76- and 91-liter plastic containers.
Standard bioassay techniques were used in sorting fish and conducting the tests. Fish were placed in aerated test aquaria overnight to permit fish to recover from stress due to handling and to deprive them of food. The average load varied but most bioassays were conducted with about 1 g of fish per liter of water.
Aliquots of organophosphates were dissolved in ethanol and dispensed to the aquaria to provide concentrations suitable for obtaining the LC0 and LC50 of desirable fish and the LC50 and LC100 of target fish. Control fish were conditioned in the same manner as the test fish, but no chemical was added to the control vessels during the assays. After the addition of a chemical, observations were made mainly at 3, 6, 12, 24, 48, 96, and 192 h. The weight and fork length of fish were obtained when fishes were sacrificed.
Delineation bioassays determined primarily the LC50 and LC100 of sucker and stickleback and the LC0 and LC50 of salmonids.
The statistical LC1, LC50, and LC99 were interpolated and/or extrapolated using probit graph paper to approximate the LC0, LC50, and LC100 when the latter set of values was not closely determined by single concentrations in a series.
Threespine stickleback, brook stickleback, bridgelip sucker, white sucker, chinook salmon, coho salmon, sockeye salmon, kokanee, Kamloops trout, cutthroat trout, and brook trout were treated with various concentrations of 2, 2, 2, 1-tetrachloroethyl diethyl phosphate and at various temperatures to determine approximate selectivity and safety indices. The approximate LC50 and LC100 of the target fishes (threespine and brook sticklebacks and bridgelip and white suckers) are tabulated in Table 5. The 96-hour selectivity and safety indices of selected species of salmonids versus the threespine stickleback are tabulated in Table 7.

The test system of data set [3] is crayfish. Put plainly: Long-term static bioassay, crayfish. Conditions: 2 μg/l; one also missing in control.
The test system of data set [4] is stickleback. As to the kind of experiment: Deactivation with activated carbon, survival of stickleback. The format is in vivo. Conditions: 2 mg/l; for Mean survival time, bioassay started 18 hours after chemical was added / Mean survival time, bioassay started when chemical was added: river water, 15 C. The procedure: A second lot of 5 fish was added to each aquarium 18 hours after the first lot of 10 fish had died or lost their equilibrium. As the life of the first lot of fish was short, the test water was only slightly conditioned by the dying fish and any error introduced by this procedure was relatively small.

In data set [5] the test system is brown bullhead catfish. As to the kind of experiment: Bioassay, brown bullhead catfish. It counts as in vivo, Ictalurus nebulosus. To be noted: for mortality: 96 h, 140-185 mm; for mortality / time in which all bullhead catfish died: artesian well water, 10 C; for time in which all bullhead catfish died: fry 28-40 mm; for selectivity to bullhead catfish: in vivo. As to the method: Bioassays (10 fish per concentration) were made with brown bullhead catfish fry (28-40 mm) at concentrations of 0, 2, and 4 mg/l of 2, 2-dichlorovinyldiethyl phosphate in artesian well water (load, 0.5 g/l). All the Bullhead catfish died in 12 hours at 2 mg/l and in 6 hours at 4 mg/l of the chemical at 10 C.
A second series of bioassays (10 fish per concentration) was made with larger bullhead catfish (140-185 mm) at 0.6 and 1.0 mg/l concentrations of 2, 2-dichlorovinyl diethyl phosphate in artesian well water (load, 1.0 g/l) at 10 C. In 96 hours 50% mortality occurred at 0.6 mg/l and 100% mortality at 1.0 mg/l.

In data set [6] the test system is chinook salmon. Conditions: chinook salmon, in vivo, 96 h.
In data set [7] the test system is spotted sucker. As to the kind of experiment: Exploratory bioassay, spotted sucker. It counts as in vivo, Minytrema melanops. To be noted: less than 24 h; 15 C; 31 to 38 mm. The procedure:
as §1
A series of five 24-hour biassays was made with the spotted sucker (2 fish per aquarium) at a concentration range of 1 mg/l to 5 mg/l of 2, 2-dichlorovinyl diethyl phosphate. The chemical killed all of the spotted suckers (31 to 38 mm) at 1 mg/l in less than 24 hours at 15 C.

The structures appear in SMILES notation.

For the compound `CCOP(=O)(OCC)OC(Cl)C(Cl)(Cl)Cl` (stereo not drawn) [2,2,2,1-tetrachloroethyl diethyl phosphate], in data set [1], the effect on grayling entry was “not affected”. Moreover, the LC0 in data set [2] (48 h) was 30 µg/L; in data set [2] (96 h), 14 µg/L; in data set [2] (192 h), 8 µg/L. In addition, the crayfish missing result in data set [3] was “one”.

On to `CCOP(=O)(OC=C(Cl)Cl)OCC` [2,2-dichlorovinyl diethyl phosphate], for which, in data set [4], the “effect of activated carbon on mortality” value is recorded as “delayed mortality”. In data set [4] (8 and 32 mg/l of carbon), the “survival time after 18-hour deactivation period” value was “about tripled”. Further, the “Mean survival time, bioassay started 18 hours after chemical was added” value is 9.5 h in data set [4] (activated carbon 0 mg/l); 8.0 h in data set [4] (activated carbon 4 mg/l); 33.5 h in data set [4] (activated carbon 8 mg/l); 95.0 h in data set [4] (activated carbon 32 mg/l, 1 fish did not die (observed 11 days)). In addition, the “Mean survival time, bioassay started when chemical was added” value was found to be 7.5 h in data set [4] (activated carbon 0 mg/l); 9.2 h in data set [4] (activated carbon 4 mg/l); 10.8 h in data set [4] (activated carbon 8 mg/l); 12.0 h in data set [4] (activated carbon 16 mg/l); 22.0 h in data set [4] (activated carbon 32 mg/l). Moreover, the mortality in data set [5] (0.6 mg/l) was determined as 50%; in data set [5] (1.0 mg/l), 100%. For the same compound, the “time in which all bullhead catfish died” value is 12 h in data set [5] (2 mg/l) and 6 h in data set [5] (4 mg/l). Further, the “selectivity to bullhead catfish” value in data set [5] was “specific for the carp and bullhead catfish”; in data set [5] (listed as dichloro-compound) it was “slightly more selective to bullhead than to stickleback”. In data set [6], this compound gave a 50% lethal concentration (LC50) of 3.4 µg/mL. In addition, the “concentration that killed all of the spotted suckers” value in data set [7] came out at 1 mg/L.

Source of the values: patent US4395969A (priority 1981, dated 1983).
